According to US9937178B2, “Methods of identifying and using MDM2 inhibitors” (DUKE UNIVERSITY, priority 2011, dated 2018):

Experiments:
Type in all cases: cell-based
[1] = tested on: rBT474, rSKBR3, rAU565 and rSUM190 cells; assay: Apoptotic cell death (Annexin V FACS) in lapatinib-resistant lines; settings: all four resistant lines
Method: FIG. 2 is a set of graphs showing the percentage of cells undergoing apoptotic cell death for each of the four cell lines and their matched resistant cell line in the presence or absence of lapatinib and/or an MDM2 inhibitor, MI-219, as measured by FACS analysis for Annexin V. Results are expressed as mean +/− SEM of Annexin V positive cells.
BT474, SKBR3, and AU565 cells were obtained from ATCC. SUM190 cells were obtained from Asterand, Inc. All cell lines were cultured in RPMI medium containing 10% fetal bovine serum (FBS). Lapatinib-resistant cells (rBT474, rSKBR3, rAU565, and rSUM190) were established as previously described^14. Cobleigh, et al. J. Clin. Oncol. 17, 2639-2648 (1999). Lapatinib-resistant cells were grown in the presence of 1 μM lapatinib unless otherwise stated.

Mcl-1 = assay: 35[S]-Mcl-1 degradation in cell-free lysates; settings: resistant cell lysates, only from cells treated with lapatinib (rBT474)
Method: FIG. 3 is a set of photographs showing that Mcl-1 is stabilized in lapatinib-resistant cells. […] FIG. 3B is a set of immunoblots showing the levels of HER2 and phospho-HER2 in untreated cells and cells treated with lapatinib. Cells were treated with or without lapatinib (1 μM) for 24 hours in the presence of the caspase inhibitor z-VAD (50 μM). The cells were harvested and cell lysates were immunoblotted using antibodies against phospho-HER2 (Y877) and total HER2. FIG. 3C is an immunoblot for phospho-AKT (T308) and total AKT. BT474 and rBT474 cells were treated with 1 μM lapatinib in the presence of 50 μM z-VAD. At the indicated time points, the cells were harvested and immunoblotted. FIG. 3D is an immunoblot for phospho-Erl1/2(T202/Y204) and total Erk1/2. BT474 and rBT474 cells were treated with 1 μM lapatinib in the presence of 50 μM z-VAD. At the indicated time points, the cells were harvested and immunoblotted. […] FIG. 3F is an autoradiograph showing the ^35[S] radioactivity in lysates containing ^35[S]-Mcl-1 at the indicated time points. ^35[S]-labeled Mcl-1 protein was incubated in cell-free lysates prepared from BT474 and rBT474 cells (top) or SKBR3 and rSKBR3 cells (bottom). […] FLAG-Mcl-1 was retrieved by immunoprecipitation using anti-flag agarose, and Mcl-1 ubiquitylation was analyzed by immunoblotting for HA (*non-specific band, **IgG heavy chain). […]

HSP90β = HSP90β phosphorylation (Ser226, Ser255)
Method: FIG. 7C is an autoradiograph of ^32P and an immunoblot showing the percentage of the protein phosphorylated. In the presence of [γ-^32P]ATP, recombinant His-tagged HSP90β proteins (wild type and the indicated mutants) on nickel beads were incubated with the HSP90β-targeted kinase casein kinase 2. FIG. 7D is an autoradiograph and corresponding immunoblot showing BT474 or rBT474 cells after being cultured in the absence or presence of 1 μM lapatinib for 24 hours in the presence of z-VAD. Recombinant His-tagged HSP90β protein on nickel beads was incubated with the cell lysates in the presence of [γ-^32P]ATP. FIG. 7E is an immunoblot for phospho-Hsp90β (Ser226) and total HSP90β at various time points. BT474 or rBT474 cells were treated with 1 μM lapatinib for the indicated amount of time. FIG. 7F is a set of graphs showing FACS analysis for the phosphorylation status of Hsp90β (Ser255). BT474 or rBT474 cells cultured in the presence of 1 μM lapatinib for 24 hours were fixed with formaldehyde and incubated with phospho-Hsp90β (Ser255) antibody followed by an Alexa488-conjugated secondary antibody.

Huwe1 = assay: Immunoblot of Huwe1 protein levels and stability
Method: FIG. 13 is a set of immunoblots showing MDM2-mediated ubiquitylation and degradation of Huwe1 in lapatinib-resistant cells. […] Cells treated with 1 μM lapatinib were harvested at various time points and immunoblotted. […] FIG. 13B is an immunoblot for HA and actin. BT474 and rBT474 cells were transiently transfected with HA-tagged Huwe1 and subsequently treated with 50 μg/ml cycloheximide (CHX) and 1 μM lapatinib. FIG. 13C is an immunoblot for Huwe1 and MDM2. Immunoprecipitation was carried out using H1299 cell lysates and anti-Huwe1 antibody (or control IgG). FIG. 13D is an immunoblot for HA or MDM2 after immunoprecipitation with HA. BT474 cells were transfected with HA-tagged Huwe1 encoding the full-length protein, residues 1-2474, or residues 2473-4374. […] H1299 cells were transfected with empty vector, HA-Huwe1^W1202A, or HA-Huwe1 wild type. FIG. 13F is an immunoblot for Huwe1 and Actin. BT474 cells were transfected with increasing amounts of MDM2 and harvested after 48 hours. FIG. 13G is an immunoblot for Huwe1, MDM2, and actin. […] FIG. 13H is an immunoblot for Huwe1. Ubiquitylation of Huwe1 was reconstituted in vitro by incubating recombinant Huwe1 protein (Huwe1^1-2474) with E1, UbcH5 (E2), ubiquitin (Ub), and recombinant MDM2 protein in reaction buffer at 37° C. for 3 hours. […] Twenty-four hours later, the cells were replated and further transfected with HA-tagged Huwe1 (wild type). Forty-eight hours after siRNA transfection, the cells were treated with 1 μM lapatinib. After 24 hours of lapatinib treatment, 50 μg/ml cycloheximide (CHX) was added to the culture medium and cells were harvested at various time points for immunoblotting.

`CS(=O)(=O)CCNCc1ccc(-c2ccc3ncnc(Nc4ccc(OCc5cccc(F)c5)c(Cl)c4)c3c2)o1` [lapatinib] was tested, and the “cell death in response to lapatinib treatment” value [1] was “did not die”, the Mcl-1 protein half-life (Mcl-1) was “prolonged” and the “HSP90β phosphorylation at both Ser226 and Ser255” value (HSP90β; lapatinib-treated resistant cells compared to sensitive cells) was “markedly decreased”. For the same molecule, the HSP90β phosphorylation (HSP90β; normal BT474 cells, 1 μM lapatinib) was “did not prevent”, the Huwe1 protein half-life (Huwe1; lapatinib-treated rBT474 cells compared to BT474 cells, 50 μg/ml cycloheximide) was “significantly shorter” and the Huwe1 protein levels (Huwe1; parental cells, 1 μM lapatinib) was “remained stable”. The Huwe1 levels (Huwe1; resistant cells, 1 μM lapatinib) was “significantly decreased”.
